pEC50: −log10 of the molar value. Read-outs that look alike come from different tables or passages of the source. Peptide text beside a SMILES is read from it.
Experiments:
Assay type in all cases: cell-based
human GIP R = molecular target: T1, human GIP R (Homo sapiens, UniProt P48546); assay: cAMP induction in HEK293 cells expressing human GIP R (AlphaScreen cAMP kit); conditions: GIP R (EC50 in nM)
T1 construct: expressed in transfected cells
T1 sequence (P48546 22-466): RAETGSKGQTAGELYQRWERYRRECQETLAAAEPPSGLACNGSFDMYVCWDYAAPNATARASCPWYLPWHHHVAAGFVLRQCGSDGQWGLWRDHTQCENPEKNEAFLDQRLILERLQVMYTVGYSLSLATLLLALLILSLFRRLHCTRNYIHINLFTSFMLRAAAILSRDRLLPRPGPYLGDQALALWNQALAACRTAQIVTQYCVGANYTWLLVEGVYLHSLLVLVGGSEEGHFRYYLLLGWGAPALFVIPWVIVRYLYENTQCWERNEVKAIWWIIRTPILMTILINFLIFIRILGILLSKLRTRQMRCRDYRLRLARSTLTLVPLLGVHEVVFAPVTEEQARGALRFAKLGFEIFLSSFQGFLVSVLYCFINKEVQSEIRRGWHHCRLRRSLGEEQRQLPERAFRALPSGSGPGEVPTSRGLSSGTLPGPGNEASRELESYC
Experimental: (§1) Briefly, HEK293 cells expressing the human GIP R, GLP-1 R or GCG R (stable cell lines generated through transfection of the cDNA for human GIP R, GLP-1 R or GCG R and selection of stable clones) were seeded at 30,000 cells/well in 96-well microtiter plates coated with 0.01% poly-L-lysine, and grown for 1 day in culture in 200 μl growth medium (DMEM, 10% FCS, Penicillin (100 IU/ml), Streptomycin (100 μg/ml)). On the day of analysis, growth medium was removed and the cells were washed once with 150 μl Tyrode's buffer (Tyrode's Salts (9.6 g/l), 10 mM HEPES, pH 7.4). […] The Assay buffer was removed and cells are lysed in 80 μl Lysis buffer (0.1% w/v BSA, 5 mM HEPES, 0.3% v/v Tween-20) per well. From each well 10 μl of lysed cells were transferred to a 384-well plate and mixed with 15 μl bead-mix (1 Unit/15 μl anti-cAMP Acceptor Beads, 1 Unit/15 μl Donor Beads, and 1 Unit/15 μl Biotinylated cAMP in Assay Buffer). The plates were mixed and incubated in the dark for an hour at room temperature before measuring using an Envision™ plate reader (Perkin-Elmer).
(§2) The resulting cAMP curves were plotted as absolute cAMP concentrations (nM) over log (test compound concentration) and analyzed using the curve fitting program XLfit.
(§3) Parameters calculated to describe both the potency as well as the agonistic activity of each test compound on the receptors were:
(§4) EC50, a concentration resulting in a half-maximal elevation of cAMP levels, reflecting the potency of the test compound.

human GLP-1 R = molecular target: T2, human GLP-1 R (Homo sapiens, UniProt P43220); assay: cAMP induction in HEK293 cells expressing human GLP-1 R (AlphaScreen cAMP kit); conditions: average EC50, cAMP, HEK293 cells expressing human GLP-1 R, read-out: GLP1 R (EC50 in nM)
T2 construct: expressed in transfected cells
Experimental: as §1, §2, §3, §4

human GCG R = molecular target: T3, human GCG R (Homo sapiens, UniProt P47871); assay: cAMP induction in HEK293 cells expressing human GCG R (AlphaScreen cAMP kit)
T3 construct: expressed in transfected cells

[1] = Table 2b (most comprehensive data), average EC50, cAMP
[2] = Table 2b (most comprehensive data)

T3 sequence (P47871 26-477): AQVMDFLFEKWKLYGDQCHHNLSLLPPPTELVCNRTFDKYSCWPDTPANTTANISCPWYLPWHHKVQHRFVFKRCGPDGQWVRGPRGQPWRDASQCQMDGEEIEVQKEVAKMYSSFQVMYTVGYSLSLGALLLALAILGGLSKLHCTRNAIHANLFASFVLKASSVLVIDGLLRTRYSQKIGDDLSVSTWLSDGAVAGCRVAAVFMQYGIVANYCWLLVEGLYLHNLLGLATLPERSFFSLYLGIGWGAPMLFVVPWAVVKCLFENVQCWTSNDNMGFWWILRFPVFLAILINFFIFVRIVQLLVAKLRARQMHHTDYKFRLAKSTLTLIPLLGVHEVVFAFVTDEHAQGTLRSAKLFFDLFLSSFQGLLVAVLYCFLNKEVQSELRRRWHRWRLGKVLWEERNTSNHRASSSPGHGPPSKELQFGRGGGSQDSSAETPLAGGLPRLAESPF
T2 sequence (P43220 24-463): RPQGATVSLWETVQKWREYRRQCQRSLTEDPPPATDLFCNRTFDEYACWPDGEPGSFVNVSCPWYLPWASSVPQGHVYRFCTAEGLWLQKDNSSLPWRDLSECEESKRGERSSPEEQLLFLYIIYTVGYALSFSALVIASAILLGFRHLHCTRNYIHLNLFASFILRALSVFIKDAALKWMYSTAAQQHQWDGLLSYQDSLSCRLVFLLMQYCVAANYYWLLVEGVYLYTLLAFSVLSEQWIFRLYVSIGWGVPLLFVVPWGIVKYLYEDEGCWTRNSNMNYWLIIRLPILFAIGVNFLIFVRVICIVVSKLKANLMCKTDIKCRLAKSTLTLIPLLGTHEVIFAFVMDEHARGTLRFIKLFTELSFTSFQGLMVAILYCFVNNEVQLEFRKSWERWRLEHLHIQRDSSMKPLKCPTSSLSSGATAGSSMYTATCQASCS

Structure (SMILES) | EC50 (human GIP R; Table 2, average EC50, cAMP) | EC50 (human GIP R; [1]) | EC50 (human GLP-1 R; Table 2) | EC50 (human GLP-1 R; [2]) | pEC50 (human GCG R)
CC(C)C[C@H](NC(=O)[C@H](CC(C)C)NC(=O)[C@H](Cc1c[nH]c2ccccc12)NC(=O)[C@H](CCC(=O)O)NC(=O)[C@@H](NC(=O)[C@H](Cc1ccccc1)NC(=O)[C@H](CC(=O)O)NC(=O)[C@H](Cc1c[nH]cn1)NC(=O)[C@H](C)NC(=O)[C@H](C)NC(=O)[C@H](CCCCN)NC(=O)[C@H](CO)NC(=O)[C@H](CC(=O)O)NC(=O)[C@H](CC(C)C)NC(=O)[C@H](Cc1ccc(O)cc1)NC(=O)[C@H](CCCCN)NC(=O)[C@H](CO)NC(=O)[C@H](Cc1ccc(O)cc1)NC(=O)[C@H](CC(=O)O)NC(=O)[C@H](CO)NC(=O)[C@@H](NC(=O)[C@H](Cc1ccccc1)NC(=O)[C@@H](NC(=O)CNC(=O)[C@H](CCC(N)=O)NC(=O)[C@H](CO)NC(=O)[C@@H](N)Cc1ccc(O)cc1)[C@@H](C)O)[C@@H](C)O)C(C)C)C(=O)N[C@@H](CCCNC(=N)N)C(=O)N[C@@H](C)C(N)=O [Compound 1] (H-YSQGTFTSDYSKYLDSKAAHDFVEWLLRA-NH2) | 0.38 nM | 0.033 nM | 0.033 nM | 0.013 nM | 10.89
CC(C)C[C@H](NC(=O)[C@H](CC(C)C)NC(=O)[C@H](Cc1c[nH]c2ccccc12)NC(=O)[C@H](CCC(=O)O)NC(=O)[C@@H](NC(=O)[C@H](Cc1ccccc1)NC(=O)[C@H](CC(=O)O)NC(=O)[C@H](CCCNC(=N)N)NC(=O)[C@H](C)NC(=O)[C@H](C)NC(=O)[C@H](CCCCN)NC(=O)[C@H](CO)NC(=O)[C@H](CC(=O)O)NC(=O)[C@H](CC(C)C)NC(=O)[C@H](Cc1ccc(O)cc1)NC(=O)[C@H](CCCCN)NC(=O)[C@H](CO)NC(=O)[C@H](Cc1ccc(O)cc1)NC(=O)[C@H](CC(=O)O)NC(=O)[C@H](CO)NC(=O)[C@@H](NC(=O)[C@H](Cc1ccccc1)NC(=O)[C@@H](NC(=O)CNC(=O)[C@H](CCC(N)=O)NC(=O)C(C)(C)NC(=O)[C@@H](N)Cc1ccc(O)cc1)[C@@H](C)O)[C@@H](C)O)C(C)C)C(=O)N[C@@H](CO)C(=O)N[C@@H](C)C(N)=O [Compound 6] (HELM PEPTIDE1{Y.[Aib].Q.G.T.F.T.S.D.Y.S.K.Y.L.D.S.K.A.A.R.D.F.V.E.W.L.L.S.A.[am]}$$$$V2.0) | 0.34 nM | 0.01 nM | 0.0095 nM |  | 10.74
CC[C@H](C)[C@H](NC(=O)[C@H](CO)NC(=O)[C@H](Cc1ccc(O)cc1)NC(=O)[C@H](CC(=O)O)NC(=O)[C@H](CO)NC(=O)[C@@H](NC(=O)[C@H](Cc1ccccc1)NC(=O)[C@@H](NC(=O)CNC(=O)[C@H](CCC(N)=O)NC(=O)C(C)(C)NC(=O)[C@@H](N)Cc1ccc(O)cc1)[C@@H](C)O)[C@@H](C)O)C(=O)N[C@@H](Cc1ccc(O)cc1)C(=O)N[C@@H](CC(C)C)C(=O)N[C@@H](CC(=O)O)C(=O)N[C@@H](CO)C(=O)N[C@@H](CCCCN)C(=O)N[C@@H](C)C(=O)N[C@@H](C)C(=O)N[C@@H](CCCCN)C(=O)N[C@@H](CC(=O)O)C(=O)N[C@@H](Cc1ccccc1)C(=O)N[C@H](C(=O)N[C@@H](CCC(=O)O)C(=O)N[C@@H](Cc1c[nH]c2ccccc12)C(=O)N[C@@H](CC(C)C)C(=O)N[C@@H](CC(C)C)C(=O)N[C@@H](CO)C(=O)N[C@@H](C)C(N)=O)C(C)C [Compound 10] (HELM PEPTIDE1{Y.[Aib].Q.G.T.F.T.S.D.Y.S.I.Y.L.D.S.K.A.A.K.D.F.V.E.W.L.L.S.A.[am]}$$$$V2.0) | 0.24 nM | 0.012 nM | 0.012 nM | 0.1 nM | 10.00

— patent US10131702B2, “Glucagon-GLP-1-GIP triple agonist compounds” (priority 2013, dated 2018)
